This is an account of results in publication PMC10786036 (2023).

Assay [1] relates to TRF2 (RNA, G4) CGGGAGGGCGGGGAGGGC
In words: fluorescence lifetime. Conditions: 100 mM KCl; 10 mM Tris-HCl pH 7.4; 2 µM TOR-G4; lifetime rises with G4 RNA in totRNA.

The subject of assay [2] is c-MYC (DNA, G4) TGAGGGTGGGTAGGGTGGGTAA
In words: fluorescence lifetime. The note with it: 100 mM LiCl; 10 mM Tris-HCl pH 7.4; lifetime 1.3 ns lower than in K+.

Structures are written as SMILES.

As to `COc1ccc2c(c1)N(C)C(=Cc1cc(/C=C/c3ccc(N(C)C)cc3)[n+](C)c3ccccc13)S2`, the binding entry in assay [1] and in assay [2] was “yes” throughout.
